pEC50: −log10 of the molar value.

By pEC50 is commonly meant the negative decadic logarithm of the EC50, by convention in mol/L. Read a high pEC50 as a low EC50.

The test system of the test is NL-RLuc virus. The test is described as follows: Inhibition of HIV replication (NL-RLuc virus, luciferase readout in MT-2 cells). It is filed as cell-based. As to conditions: Human immunodeficiency virus 1, MT2, 120 h, MT-2 cells infected with NL-RLuc virus, 5 days of incubation, 10% FBS, at least 2 experiments. The method in brief:
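MT-2 cells infected with NL4-3-derived virus carrying Renilla luciferase in place of part of nef, grown 5 days with serial compound dilutions in RPMI 1640/10% FBS. Virus growth read as luciferase expression. EC50 from median effect equation, at least 2 experiments.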
As to `Cc1ncc(-c2cc(C(F)(F)F)c(OCCc3ccc(F)cc3)cn2)c(N2CCC(C)(C)CC2)c1[C@H](OC(C)(C)C)C(=O)O` [Example 244, (S)-2-(tert-Butoxy)-2-(4′-(4,4-dimethylpiperidin-1-yl)-5-(4-fluorophenethoxy)-6′-methyl-4-(trifluoromethyl)-[2, 3′-bipyridin]-5′-yl)acetic acid], the pEC50 is 8.52.

Consider `Cc1nc(-c2cnc(C)c([C@H](OC(C)(C)C)C(=O)O)c2N2CCC(C)(C)CC2)ncc1OCCc1ccc(F)cc1` [Example 245, (S)-2-(tert-Butoxy)-2-(4-(4,4-dimethylpiperidin-1-yl)-5-(5-(4-fluorophenethoxy)-4-methylpyrimidin-2-yl)-2-methylpyridin-3-yl)acetic acid], for which the pEC50 was 8.70.

`CCC(C)(C)O[C@H](C(=O)O)c1c(C)ncc(-c2ccc(OCCc3ccc(F)cc3)cn2)c1N1CCC(C)(C)CC1` [Example 246, (S)-2-(4′-(4,4-Dimethylpiperidin-1-yl)-5-(4-fluorophenethoxy)-6′-methyl-[2, 3′-bipyridin]-5′-yl)-2-(tert-pentyloxy)acetic acid] had a pEC50 of 9.40.

`CCC(C)(C)O[C@H](C(=O)O)c1c(C)ncc(-c2ncc(OCCc3ccc(F)cc3)cn2)c1N1CCC(C)(C)CC1` [Example 247, (S)-2-(4-(4,4-Dimethylpiperidin-1-yl)-5-(5-(4-fluorophenethoxy)pyrimidin-2-yl)-2-methylpyridin-3-yl)-2-(tert-pentyloxy)acetic acid] had a pEC50 of 9.10.

Consider `Cc1cc(-c2cnc(C)c([C@H](OC(C)(C)C)C(=O)O)c2N2CCC(C)(C)CC2)ncc1OCCc1ccc(F)cc1` [Example 248, (S)-2-(tert-Butoxy)-2-(4′-(4,4-dimethylpiperidin-1-yl)-5-(4-fluorophenethoxy)-4, 6′-dimethyl-[2, 3′-bipyridin]-5′-yl)acetic acid], for which the pEC50 is 9.00.

Compound `COc1nc(-c2cnc(C)c([C@H](OC(C)(C)C)C(=O)O)c2N2CCC(C)(C)CC2)ccc1OCCc1ccc(F)cc1` [Example 249, (S)-2-(tert-Butoxy)-2-(4′-(4,4-dimethylpiperidin-1-yl)-5-(4-fluorophenethoxy)-6-methoxy-6′-methyl-[2, 3′-bipyridin]-5′-yl)acetic acid] had a pEC50 of 8.70.

Take `Cc1ncc(-c2cnc(OCCc3ccc(F)cc3)c(Cl)c2)c(N2CCC(C)(C)CC2)c1[C@H](OC(C)(C)C)C(=O)O` [Example 250, (S)-2-(tert-Butoxy)-2-(5′-chloro-4-(4,4-dimethylpiperidin-1-yl)-6′-(4-fluorophenethoxy)-6-methyl-[3, 3′-bipyridin]-5-yl)acetic acid]: the pEC50 is 8.70.

`Cc1ncc(-c2cnc(OCCc3cccc(F)c3)c(Cl)c2)c(N2CCC(C)(C)CC2)c1[C@H](OC(C)(C)C)C(=O)O` [Example 251, (S)-2-(tert-Butoxy)-2-(5′-chloro-4-(4,4-dimethylpiperidin-1-yl)-6′-(3-fluorophenethoxy)-6-methyl-[3, 3′-bipyridin]-5-yl)acetic acid] gave a pEC50 of 8.70.

`Cc1ncc(-c2cnc(OCCc3ccccc3F)c(Cl)c2)c(N2CCC(C)(C)CC2)c1[C@H](OC(C)(C)C)C(=O)O` [Example 252, (S)-2-(tert-Butoxy)-2-(5′-chloro-4-(4,4-dimethylpiperidin-1-yl)-6′-(2-fluorophenethoxy)-6-methyl-[3, 3′-bipyridin]-5-yl)acetic acid]: the pEC50 is 9.00.

For the compound `Cc1cc(-c2cnc(C)c([C@H](OC(C)(C)C)C(=O)O)c2N2CCC(C)(C)CC2)cnc1OCCc1ccc(F)cc1` [Example 253, (S)-2-(tert-Butoxy)-2-(4-(4,4-dimethylpiperidin-1-yl)-6′-(4-fluorophenethoxy)-5′,6-dimethyl-[3,3′-bipyridin]-5-yl)acetic acid], the pEC50 is 9.00.

In turn, `Cc1ncc(-c2ccc(OCCc3ccc(F)cc3)nc2)c(N2CCC(C)(C)CC2)c1[C@H](OC(C)(C)C)C(=O)O` [Example 254, (S)-2-(tert-Butoxy)-2-(4-(4,4-dimethylpiperidin-1-yl)-6′-(4-fluorophenethoxy)-6-methyl-[3,3′-bipyridin]-5-yl)acetic acid] had a pEC50 of 9.22.

On to `Cc1ncc(-c2ccc(OCCc3cccc(F)c3)nc2)c(N2CCC(C)(C)CC2)c1[C@H](OC(C)(C)C)C(=O)O` [Example 255, (S)-2-(tert-Butoxy)-2-(4-(4,4-dimethylpiperidin-1-yl)-6′-(3-fluorophenethoxy)-6-methyl-[3,3′-bipyridin]-5-yl)acetic acid], for which the pEC50 is 9.10.

For the compound `Cc1ncc(-c2ccc(OCCc3ccc(F)cc3)c(C#N)c2)c(N2CCC(C)(C)CC2)c1[C@H](OC(C)(C)C)C(=O)O` [Example 256, (S)-2-(tert-Butoxy)-2-(5-(3-cyano-4-(4-fluorophenethoxy)phenyl)-4-(4,4-dimethylpiperidin-1-yl)-2-methylpyridin-3-yl)acetic acid], the pEC50 was 9.10.

In the case of `Cc1ncc(-c2ccc(OCCc3cccc(F)c3)c(F)c2)c(N2CCC(C)(C)CC2)c1[C@H](OC(C)(C)C)C(=O)O` [Example 257, (S)-2-(tert-Butoxy)-2-(4-(4,4-dimethylpiperidin-1-yl)-5-(3-fluoro-4-(3-fluorophenethoxy)phenyl)-2-methylpyridin-3-yl)acetic acid], the pEC50 is 9.00.

The compound `Cc1ncc(-c2ccc(OCCc3ccccc3)c(F)c2)c(N2CCC(C)(C)CC2)c1[C@H](OC(C)(C)C)C(=O)O` [Example 258, (S)-2-(tert-Butoxy)-2-(4-(4,4-dimethylpiperidin-1-yl)-5-(3-fluoro-4-phenethoxyphenyl)-2-methylpyridin-3-yl)acetic acid] showed a negative logarithm of the EC50 (pEC50) of 9.00.

Take `Cc1ncc(-c2ccc(OCCc3ccccc3F)cc2)c(N2CCC(C)(C)CC2)c1[C@H](OC(C)(C)C)C(=O)O` [Example 259, (S)-2-(tert-Butoxy)-2-(4-(4,4-dimethylpiperidin-1-yl)-5-(4-(2-fluorophenethoxy)phenyl)-2-methylpyridin-3-yl)acetic acid]: the pEC50 is 9.00.

`Cc1nc(OCCc2ccc(F)cc2)ccc1-c1cnc(C)c([C@H](OC(C)(C)C)C(=O)O)c1N1CCC(C)(C)CC1` [Example 260, (S)-2-(tert-Butoxy)-2-(4-(4,4-dimethylpiperidin-1-yl)-6′-(4-fluorophenethoxy)-2′,6-dimethyl-[3, 3′-bipyridin]-5-yl)acetic acid] had a pEC50 of 7.96.

In turn, `Cc1nc(OCCc2cccc(F)c2)ccc1-c1cnc(C)c([C@H](OC(C)(C)C)C(=O)O)c1N1CCC(C)(C)CC1` [Example 261, (S)-2-(tert-Butoxy)-2-(4-(4,4-dimethylpiperidin-1-yl)-6′-(3-fluorophenethoxy)-2′,6-dimethyl-[3, 3′-bipyridin]-5-yl)acetic acid] gave a pEC50 of 7.55.

For the compound `CCC(C)(C)O[C@H](C(=O)O)c1c(C)ncc(-c2ccc(OCCc3ccccc3)cc2)c1N1CCC(C)(C)CC1` [Example 264, (S)-2-(4-(4,4-Dimethylpiperidin-1-yl)-2-methyl-5-(4-phenethoxyphenyl)pyridin-3-yl)-2-(tert-pentyloxy)acetic acid], the pEC50 is 8.52.

Consider `Cc1ncc(-c2ccc(OCCc3ccccc3)cc2)c(N2CCC(C)(C)CC2)c1[C@H](OC(C)(C)C)C(=O)O` [Example 265, (S)-2-(tert-Butoxy)-2-(4-(4,4-dimethylpiperidin-1-yl)-2-methyl-5-(4-phenethoxyphenyl)pyridin-3-yl)acetic acid], for which the pEC50 was 9.00.

As to `Cc1ncc(-c2ccc3ccccc3n2)c(N2CCC(C)(C)CC2)c1[C@H](OC(C)(C)C)C(=O)O` [Example 266, (S)-2-(tert-Butoxy)-2-(4-(4,4-dimethylpiperidin-1-yl)-2-methyl-5-(quinolin-2-yl)pyridin-3-yl)acetic acid], the pEC50 is 7.96.

The compound `Cc1ncc(-c2ncc3ccccc3n2)c(N2CCC(C)(C)CC2)c1[C@H](OC(C)(C)C)C(=O)O` [Example 267, (S)-2-(tert-Butoxy)-2-(4-(4,4-dimethylpiperidin-1-yl)-2-methyl-5-(quinazolin-2-yl)pyridin-3-yl)acetic acid] showed a pEC50 of 8.05.

`Cc1cc(-c2cnc(C)c([C@H](OC(C)(C)C)C(=O)O)c2N2CCC(C)(C)CC2)nnc1OCCc1ccc(F)cc1` [Example 268, (S)-2-(tert-Butoxy)-2-(4-(4,4-dimethylpiperidin-1-yl)-5-(6-(4-fluorophenethoxy)-5-methylpyridazin-3-yl)-2-methylpyridin-3-yl)acetic acid] had a pEC50 of 7.30.

In the case of `CC1(C)CCN(c2c(-c3ccc(OCCc4ccc(F)cc4)cn3)cnc(CO)c2[C@H](OC(C)(C)C)C(=O)O)CC1` [Example 269, (S)-2-(tert-Butoxy)-2-(4′-(4,4-dimethylpiperidin-1-yl)-5-(4-fluorophenethoxy)-6′-(hydroxymethyl)-[2, 3′-bipyridin]-5′-yl)acetic acid], the pEC50 was 8.05.

`CCc1ncc(-c2ccc(OCCc3ccc(F)cc3)cn2)c(N2CCC(C)(C)CC2)c1[C@H](OC(C)(C)C)C(=O)O` [Example 270]: the pEC50 is 9.22.

With `Cc1ncc(-c2ccc(OCCc3ccc(F)cc3)cn2)c(N2CCC(C)(C)CC2)c1[C@H](OC(C)C)C(=O)O` [Example 271, (S)-2-(4′-(4,4-Dimethylpiperidin-1-yl)-5-(4-fluorophenethoxy)-6′-methyl-[2, 3′-bipyridin]-5′-yl)-2-isopropoxyacetic acid], the pEC50 was 8.52.

For the compound `Cc1ncc(-c2ccc(COc3ccccc3)cn2)c(N2CCC(C)(C)CC2)c1[C@H](OC(C)(C)C)C(=O)O` [Example 272, (S)-2-(tert-Butoxy)-2-(4′-(4,4-dimethylpiperidin-1-yl)-6′-methyl-5-(phenoxymethyl)-[2, 3′-bipyridin]-5′-yl)acetic acid], the pEC50 was 8.70.

The compound `Cc1ncc(-c2ccc(CCC(C)C)cn2)c(N2CCC(C)(C)CC2)c1[C@H](OC(C)(C)C)C(=O)O` [Example 273, (S)-2-(tert-Butoxy)-2-(4′-(4,4-dimethylpiperidin-1-yl)-5-isopentyl-6′-methyl-[2, 3′-bipyridin]-5′-yl)acetic acid] showed a pEC50 of 8.40.

These data come from patent US20200055839A1 (priority 2017, published 2020).
